The test system of one data set is bacteria. The data set is described as follows: Chemical treatments mildly affecting membrane permeability, EB staining. To be noted: 20 mM EDTA, 0.1-0.5% Triton X100, 0.12 M guanidine HCl or 0.1% SDS. It is filed as cell-based. The text has this: All cell viability assays have limitations. The CFU method can overestimate the proportion of dead cells because any viable cells that are unable to divide, or dividing more slowly than wild-type, fail to form visible colonies and will be scored as dead. Membrane exclusion dyes, such as EB and propidium iodine, can underestimate the proportion of dead cells as recently dead cells may not have sufficiently compromised membranes to allow the dye to enter the cell. […] How other viability methods score dying cells also varies and it is often difficult to accurately quantitate, or distinguish, a dying cell population (4). For membrane-exclusion dyes, the concern is whether the dye enters cells with mildly compromised membranes that may be dying, but not dead.

A short description of data set [1]: Excitation and emission spectra comparison. The data set is classed as physicochemical. The following applies: approx. An excerpt: FIG. 11. The excitation and emission spectra for erythrosin B and propidium iodide, another cell viability dye that works by membrane exclusion, were compared. Erythrosin B has a narrow range for both excitation (approx. 480-550 nm) and emission (approx. 540-610 nm) compared to propidium iodide (excitation of approx. 300-350 nm and 475-575 nnm; emission of approx. 570-750 nm).
Many experiments involving fluorescent molecules, including viability assays, try to multiplex (use more than one fluorescent molecule at a time (e.g., FIG. 12)). A key limitation to the number of different fluorescent molecules that can be simultaneously used is the width of the region(s) of wavelengths for excitation and for emission. By having narrow ranges for both excitation and emission this allows erythrosin B to be more flexible than propidium iodide and potentially be paired with a wider variety of other fluorescent probes.

A short description of data set [2]: Concentration of filtered EB stock solution by A530 reference. It is filed as physicochemical. To be noted: 0.1% (w/v) preparation in 10 mM Tris pH 7.5, undissolved dye removed by 0.22 μm filter. How it is done: Erythrosin B (EB, Sigma, Mo., USA 200964-5G) was prepared by dissolving powder in 10 mM Tris pH 7.5. Published values of the solubility of EB in aqueous solutions vary and may result from different preparations of the dye and from which supplier it is purchased. A small amount of undissolved dye was present when preparing a 0.1% (w/v) solution. This stock solution was filtered through a 0.22 μm filter to remove undissolved dye. To determine the concentration of this stock solution a fresh, dilute EB solution was prepared in which all dye fully dissolved after 10 minutes of stirring. This dilute solution was serially diluted and A530 readings (the wavelength of maximal absorbance for EB) were collected generating a reference relating EB dye concentration to A530. The filtered, stock solution of EB was then serially diluted, and absorbance values of the dilutions were compared to the reference absorbance values for the dilute solution. The stock EB concentration was determined to be 0.08% and is used throughout this work.

Data set [3] has as its system Gram-negative and Gram-positive bacteria. The data set is described as follows: Bright-field microscopy viability staining with erythrosin B. It is filed as cell-based. The procedure: Growth and treatments of bacteria. To prepare cells for viability studies, 3 mL overnight bacterial cultures were grown in Luria Broth. Fresh 5 mL cultures were inoculated from the overnight cultures and grown for 1 to 4 hours until reaching an OD600 of 0.4-1.1. Cells were harvested by centrifugation (15,000 g for 4 minutes) and then resuspended in phosphate buffered saline (PBS). A portion of these cells were kept at room temperature (untreated controls), while the remainder were transferred into separate microfuge tubes for different treatments. For heat shock treatment, microfuge tubes were placed at 70° C. for 30 minutes before returning to room temperature. For ethanol treatment, 100% ethanol (Decon Labs, Inc., PA, USA product number 2716) was added to cell suspensions to a final concentration of 30%. Cell mixtures were incubated at 37° C. for 30 minutes, centrifuged, and then the pellet was resuspended in PBS. For CaCl2 treatment, cells were centrifuged, and the pellet was resuspended in 1 mL of ice-cold 100 mM CaCl2 and left on ice for 45 minutes. After this initial incubation, the cells were centrifuged and resuspended in 1004 of 100 mM CaCl2.
Assaying bacterial viability. For bright-field microscopy assays, 104 of each cell suspension (untreated, heat-shocked, ethanol-treated and CaCl2-treated) was mixed with 104 of 0.08% erythrosin B and incubated for 5 minutes at room temperature. For CaCl2-treated cells, mixtures were placed at 42° C. for 60 seconds before returning to room temperature for the remainder of the incubation. 5 μl of the incubated dye:cell mixtures were taken to prepare wet mounts. Imaging was performed on a […] Olympus BX61 microscope using an UPlanSApo 100X/1.14 NA oil objective lens with an Olympus SC10 camera.

The test system of a further data set is Streptococcus mutans. The data set is described as follows: Flow cytometry viability comparison, propidium iodide vs EB-based kit. It is filed as cell-based. To be noted: >90% alive by CFU, 30,000 events. How it is done: (§1) Determining bacterial cell viability by a different membrane exclusion dye (propidium iodide, PI) is not reliable for certain bacteria species and under certain growth conditions (10,11). Using an EB dye and adsorbent resin binding step (hereafter referred to as EB-based Kit), it is possible to reliably determine cell viability in these bacteria species (FIG. 9A-L). In these experiments, overnight cultures of Streptococcus mutans (FIG. 9A-F) and Staphylococcus epidermidis (FIG. 9G-L) were grown in Luria Broth. A portion of each culture was killed by treating with ethanol (50% ethanol, for 30 minutes at 30° C.). Overnight cells and ethanol-treated cells were centrifuged (10,000 g for 6 minutes) and then resuspended in phosphate buffered saline. Both cell suspensions were then sonicated to break apart any clusters (10% for 10 seconds). An approximately equal amount of the untreated, living overnight cells and the ethanol-treated, killed cells were mixed to generate a mixed population sample. 100 microliters of each sample (overnight culture, live/dead mixture, and killed cells) were incubated with 100 microliters of an EB-dye solution for 5 minutes. After incubation, 100 microliters of the adsorbent solution was added and gently agitated for 5 minutes on a vortexer. Following agitation, the tubes were left for 5 minutes to allow the adsorbent to settle and 200 microliters of the liquid solution above the adsorbent was transferred to a new tube. These samples were brought up to 1 mL in phosphate buffered saline. For propidium iodide staining, 40 microliters of the sonicated samples (overnight culture, live/dead mixture, and killed cells) were transferred to a fresh tube and brought up to 1 mL in phosphate buffered saline. 1 microliter of propidium iodide was added to each tube and incubated for 15 minutes before analyzing all samples by flow cytometry (FIGS. 9A-F for Streptococcus mutans and FIGS. 9G-L for Staphylococcus epidermidis).
A general note: In flow cytometry, cells or beads pass a laser one at a time.

The test system of data set [4] is Staphylococcus epidermidis. The description is as above. It is filed as cell-based. The procedure: as §1

Several values for one entry are separate records, joined by “and”; a condition that tells them apart may be missing. Equal values may be shown once. Where a name gives a salt, the structure may show the parent alone. A value given as a limit tells only on which side of the number the result lay.

This is an account of results in US20220136033A1, “Kits and Assays for Determining Bacterial Cell Viability” (priority 2020, published 2022).

As to Triton X100, in the data set with bacteria, the “increase in dye-positive live cells after chemical treatment” value is listed as “did not result in an observable increase in dye-positive live cells”.
On the same count and under the same terms, with `N=C(N)N` [guanidine HCl] the entry was “did not result in an observable increase in dye-positive live cells”.
As for `O.O=C([O-])c1ccccc1-c1c2cc(I)c(=O)c(I)c-2oc2c(I)c([O-])c(I)cc12.[Na+].[Na+]` [EB, Erythrosin B], in data set [1], the emission range is on record as 540-610 nm and the excitation range is listed as 480-550 nm. For the same molecule, the “stock EB concentration” value in data set [2] is given as 0.08%. Moreover, the “dye-positive cells after CaCl2 treatment” value in data set [3] (CaCl2-treated cells) was “not all treated cells were dye positive”. In addition, the “time until clear differences between dye-negative and dye-positive cells were visible” value in data set [3] (dye incubation, bright-field) was not above 5 min. Also, the “dye-positive cells after heat shock or ethanol treatment” value in data set [3] (heat shocked and ethanol-treated organisms) is “virtually all treated cells were dye-positive”. Also, the “healthy cells dye-positive by bright-field microscopy when incubated with EB” value in data set [3] (untreated cells, all species examined) is less than 3%.
For the molecule `CC[N+](C)(CC)CCC[n+]1c(-c2ccccc2)c2cc(N)ccc2c2ccc(N)cc21.[I-].[I-]` [PI, propidium iodide], the “cells dye-positive (dead), overnight culture” value is on record as “virtually all cells” in the data set on Streptococcus mutans and approximately 61% in data set [4] (overnight culture, >90% alive by CFU, 30,000 events). Also, the “cells dead, Live/Dead Mixture sample” value in data set [4] (near-equal mixture of live and ethanol-killed cells) was found to be 95%. In addition, the emission range in data set [1] is given as 570-750 nm. For the same molecule, the excitation range in data set [1] is 300-350 nm and 475-575 nm.
As for `CCCCCCCCCCCCOS(=O)(=O)[O-].[Na+]` [SDS], the “increase in dye-positive live cells after chemical treatment” value with bacteria is recorded as “did not result in an observable increase in dye-positive live cells”.
The same measure, in the same setting: with `O=C(O)CN(CCN(CC(=O)O)CC(=O)O)CC(=O)O` [EDTA] the entry was “did not result in an observable increase in dye-positive live cells”.
